Results taken from patent US7351581B2, “In vivo method for producing female offsprings in bovines” (priority 2000, dated 2008).

Key:
buffaloes = assay: Example 3: vinegar, dilute acetic acid or acidified sodium acetate, no control group, buffaloes
Description: (§1) The first study was conducted in a population primarily comprising cows and buffaloes. […] Equal number of animals were used in the standard/control group for comparison. The animals were in the study group were allowed to undergo one insemination. Thereafter, i.e. within 35-50 minutes, the material prepared according to the process described in Example 1 was administered to the animals in the study group. The animals in the control/standard group were not subject to administration of any material. Mating or insemination was not controlled. All the animals were allowed to move freely in their usual environment and were kept on normal diet. Their behavior and temperature/temperament especially of the study group. was monitored.
(§2) These animals were administered vinegar, dilute acetic acid, and sodium acetate solution in acidic pH separately.

cows = assay: Example 3: vinegar, dilute acetic acid or acidified sodium acetate, no control group, cows
Description: as §1, §2

cows and buffaloes = assay: Example 3: totals for cows and buffaloes together
Description: as §1, §2

Compound	Animals not conceived (buffaloes)	No. of Miscarriages (buffaloes)	OFFSPRING Females (buffaloes)	OFFSPRING Males (buffaloes)	OFFSPRING Females (cows; cows, no control group)	OFFSPRING Males (cows; cows, no control group)	Animals not conceived (cows; female, cows, in vivo)	No. of Miscarriages (cows; in vivo)	female offsprings delivered (cows and buffaloes; cows and buffaloes together)	share of female offsprings (cows and buffaloes; cows and buffaloes together) [%]	animals that did not conceive (cows and buffaloes; female, cows and buffaloes, in vivo)	animals that reported miscarriage (cows and buffaloes; in vivo)	Animals not conceived (cows; cows, no control group)	No. of Miscarriages (cows; cows, no control group)	animals that did not conceive (cows and buffaloes; cows and buffaloes together)
CC(=O)O [Acetic Acid dilute, acetic acid]	3	Nil	11	Nil	6	Nil	2	Nil	17	100	5	no animals reported miscarriage			
CC(=O)[O-].[Na+] [Sodium Acetate Acidified, sodium acetate]	2	Nil	8	Nil	4	Nil			12	100			1	Nil	3
